The test system of assay [1] is Akt. The assay is described as follows: Insulin-stimulated phosphorylation of Akt in mouse liver after feeding (immunoblot). The class given is in vivo, C57BL/6 mice. The settings on record: food with 0.9 μmol/g compound for 3 days, 40 μg insulin i.p. The text has this: (§1) C57BL/6 mice (Charles River Laboratories) that had been kept in a pathogen-free animal facility, maintaining a 12-hour light/dark cycle, were used. The animals received standard mouse food (19% protein, 3.3% fat, 41.3% carbohydrates; ssniff Spezialdiäten GmbH) ad libitum. Male animals between the ages of 8 and 12 weeks were used.
A group of 6 C57BL/6 mice received standard mouse food mixed with 0.9 μmol/g of the compound according to formula (9) for a period of 3 days, while a control group of 6 animals received standard mouse food. The animals were then injected intraperitoneally with 100 μl normal saline solution (control group) or saline solution with 40 μg recombinant human insulin (Sigma). After 10 minutes the mice were anesthetized, the livers were removed and were lysed in lysate buffer (20 mM Tris-Cl, pH 7.5, 150 mM NaCl, 1 mM EDTA, 1 mM EGTA, 2.5 mM sodium pyrophosphate, 1 mM β-glycerophosphate, 1 mM sodium vanadate, 1% Triton X-100) and protease inhibitor mix HP (Serva).
Further, standardized quantities of protein were separated out using SDS-PAGE, and this protein was identified via immunoblotting, after being transferred to nitrocellulose membranes, with an antibody, against the phosphorylated protein Akt, pAkt (Thr308) (cell signaling). Visualization and evaluation were performed as described in Example 2.
In general terms: Immunoblotting shows a protein as a band on a membrane.

Assay [2] concerns Akt. The assay is described as follows: Insulin-stimulated phosphorylation of Akt in Drosophila S2 Schneider cells (Western blot). The settings on record: 10 μM compound 2 hours, 10 μg/ml human insulin 15 minutes. Format: cell-based. Here is the method:
10^6 Drosophila S2 cells (Schneider, 1972. J. Embryol. Exp. Morphol. 27, 353) were seeded in cell culture medium (PAN company) with 10% fetal calf serum and 1% streptomycin, penicillin (Gibco) in 35 mm cell culture plates (Nunc company) and cultivated for 2 days at 25° C. to 70-80% confluence. After 2 days, 0.5% (v/v) of the medium DMSO was added, and, based upon the experiment, 10 μM of the compound according to formula (9) was added for 2 hours before insulin stimulation. For an insulin stimulation, human insulin (Sigma) was used for 15 minutes at a rate of 10 μg/ml. Once stimulation was complete, the cells were washed with cold PBS, lysed in cold (4° C.) lysate buffer (50 mM Tris-HCl, pH 8.0, 150 mM NaCl, 1.0% Triton X-100, 0.1% SDS, 0.5% sodium deoxycholate, 50 mM NaF, 100 μM sodium orthovanadate, 1 mM phenylmethylsulfonyl fluoride and EDTA-free protease inhibitor (Roche), according to manufacturer's instructions, and used in the Western Blot analysis.
In each case, 10 μg protein were isolated on a 12% SDS polyacrylamide gel and transferred to 0.22 μm porous nitrocellulose membranes (Amersham). […]
Visualization was performed by means of the ECL Kit (Enhanced Chemiluminescence, Amersham) using the VersaDoc 5000 Imaging System (BioRad) and the QuantityOne software (BioRad).

Assay [3] concerns genes that are controlled via the PI3K-dependent pathway of the insulin receptor signaling pathway. The assay is described as follows: Expression of insulin-regulated gluconeogenic and glycolytic genes in mouse liver after feeding (quantitative PCR). To be noted: food with 0.9 μmol/g compound for 3 days, 40 μg insulin i.p. The class given is in vivo, C57BL/6 mice.
Source text: as §1
A group of 6 C57BL/6 mice received standard mouse food mixed with 0.9 μmol/g of the compound according to formula (9) for a period of 3 days, while a control group of 6 animals received standard mouse food. The animals were then injected intraperitoneally with 100 μl normal saline solution (control group) or saline solution with 40 μg recombinant human insulin (Sigma). […]
Total RNA from 15 mg mouse liver in each case was isolated using the Absolutely RNA Kit (Stratagene) and the cDNA was produced via the reverse transcription of 2 μg RNA using the High Capacity cDNA Archive Kit (Applied Biosystems), according to the manufacturer's instructions. Quantitative PCR was performed in 10 μl batches in an iQ5-Cycler (BioRad) by means of the TaqMan Gene Expression Assay (Applied Biosystems) using primers (Applied Biosystems), against lgfbp1, Fbp2, Pck1, Pck2, G6 pc, Hk2, Pklr, Gck, Gckr, according to the manufacturer's instructions. […]

The test system of assay [4] is Akt. The experiment in a line: Insulin-dependent phosphorylation of Akt in HepG2 cells (immunoblot). Format: cell-based, human. The settings on record: 100 nM insulin. Here is the method: Human hepG2 cells (ECACC) were cultivated in EMEM medium (Cambrex) with the addition of 10% fetal calf serum. 10^5 cells were seeded in 2 ml medium in 6 well plates and were cultivated at 37° C. in a moist atmosphere with 5% CO2 for 1 to 3 days, before being used for experiments.
The expression of IGFBP1 (insulin-like growth factor binding protein) is controlled by insulin via the forkhead box transcription factors O1A (FoxO1A) and O3A (FoxO3A). Following insulin stimulation, the protein kinase B/Akt (PKB/Akt) is activated via phosphorylation, based upon the phosphoinositide-3-kinase (PI3K), reaches the nucleus where it phosphorylates the transcription factor O1A (FoxO1A), which leads to a decrease in the gene expression of IGFBP1, for example.
For human HepG2 cells (ECACC), serum was removed from the medium for 90 minutes, the cells were incubated for another 60 minutes with 5 μM, 10 μM and 15 μM of the compound according to formula (9), 200 nM Wortmannin or DMSO (dimethylsulfoxide) at a corresponding concentration, after which the cells were stimulated for 10 minutes with 100 nM insulin. The cells were then lysed in lysate buffer (20 mM Tris-Cl, pH 7.5, 150 mM NaCl, 1 mM EDTA, 1 mM EGTA, 2.5 mM sodium pyrophosphate, 1 mM β-glycerophosphate, 1 mM sodium vanadate, 1% Triton X-100) and protease inhibitor mix HP (Serva).
Standardized quantities of protein were separated out using SDS-PAGE, and were transferred to nitrocellulose membranes. For protein identification via immunoblotting, an antibody was used against the phosphorylated protein Akt, pAkt (Thr308) (cell signaling). Visualization was carried out using the Enhanced Chemiluminescence System (Millipore) using a VersaDoc 5000 CCD camera (BioRad), and the intensity of the bands was quantified using the QuantityOne software (BioRad).

The next assay deals with FoxO1A. The experiment in a line: Insulin-dependent phosphorylation of FoxO1A in HepG2 cells. Format: cell-based, human. To be noted: HepG2 cells, 5, 10, 15 μM compound, 100 nM insulin; based upon concentration.

The structures appear in SMILES notation.

Regarding `COc1nc(-c2ccc3c(c2)OCO3)n(-c2ccc(NC(=O)CSc3ccccc3)cc2)n1` [Compound (9)], in the assay with Akt [1], the “inhibition of the phosphorylation of the protein Akt stimulated by insulin” value is given as “approximately 40%”. In addition, the “insulin-stimulated phosphorylation of the protein Akt” value with Akt [2] is “decreased by half”. Further, in assay [3], the “expression of the glycolytic gene induced by insulin” value is given as “decreased to a statistically significant degree” and the “expression of the studied gluconeogenic gene, suppressed by insulin” value is “increased”. In addition, the “reduction in the phosphorylation of Akt as compared with phosphorylation following insulin stimulation” value in the assay with Akt [4] (HepG2 cells, 10 μM compound) is on record as 50%. Moreover, the “phosphorylation of Akt as % of the phosphorylation following insulin stimulation” value in the assay with Akt [4] (HepG2 cells, 15 μM compound) is listed as “approximately 25%”. In the assay with Akt [4] (HepG2 cells, 5, 10, 15 μM compound, based upon concentration), the “insulin-dependent phosphorylation of Akt” value is given as “inhibited”. Moreover, the “insulin-dependent phosphorylation of FoxO1A” value in the assay on FoxO1A is “inhibited”.

The record behind these values is patent US20100048594A1, “USE OF CYTOHESIN INHIBITORS FOR CHEMICALLY INDUCING LONGEVITY” (RHEINISCHE FRIEDRICH-WILHELMS UNIVERSITAT, priority 2006, published 2010).
